Experimental findings from ChEMBL document CHEMBL1129143, “Synthesis and acetylcholinesterase inhibitory activity of fluorinated analogues of huperzine A” (Bioorg Med Chem Lett, 1996) are described below.

SMILES strings stand for the structures.

Sequence of Acetylcholinesterase (P22303 whole entry): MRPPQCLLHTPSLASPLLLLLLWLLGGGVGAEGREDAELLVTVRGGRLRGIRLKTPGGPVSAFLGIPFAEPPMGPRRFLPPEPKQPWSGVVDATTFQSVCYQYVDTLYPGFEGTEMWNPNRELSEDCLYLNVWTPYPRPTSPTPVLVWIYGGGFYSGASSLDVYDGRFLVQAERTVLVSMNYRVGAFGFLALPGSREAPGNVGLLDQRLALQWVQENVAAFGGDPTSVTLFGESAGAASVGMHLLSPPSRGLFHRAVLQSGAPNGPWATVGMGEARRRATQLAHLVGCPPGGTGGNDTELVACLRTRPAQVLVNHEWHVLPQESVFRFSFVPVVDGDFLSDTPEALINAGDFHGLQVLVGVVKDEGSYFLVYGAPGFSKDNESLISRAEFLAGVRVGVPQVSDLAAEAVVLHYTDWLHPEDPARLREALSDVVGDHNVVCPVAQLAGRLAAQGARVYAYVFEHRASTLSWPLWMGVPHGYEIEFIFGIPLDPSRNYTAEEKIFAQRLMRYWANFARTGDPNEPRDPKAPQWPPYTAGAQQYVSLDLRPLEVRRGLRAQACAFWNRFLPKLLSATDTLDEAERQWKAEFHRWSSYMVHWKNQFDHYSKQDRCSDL

The assay concerns the target Acetylcholinesterase (Homo sapiens, UniProt P22303). Briefly: In vitro inhibitory activity against Acetylcholinesterase (AChE).
As to `C/C=C1\C2C=C(C(F)(F)F)CC1(N)c1ccc(=O)[nH]c1C2` (stereo not drawn), inhibition was half-maximal at 400 nM (IC50).

As for `NC12CC(C(F)(F)F)=CC(Cc3nc(O)ccc31)/C2=C\C(F)(F)F` (stereo not drawn), it took 3000 nM to reach half-maximal inhibition (IC50).

On to `CC1=CC2Cc3nc(O)ccc3C(N)(C1)/C2=C/C(F)(F)F` (stereo not drawn), for which the IC50 was found to be 2000 nM.
